± gives the expanded uncertainty stated by the source.
Legend:
[1] = 295.15 K; 101.33 kPa; Liquid; Vibrating tube method
[2] = refractive index (Na D-line) (dimensionless); conditions: 298.15 K; 101.33 kPa; Liquid; Standard Abbe refractometry
[3] = xn = mol fraction of the nth substance listed; conditions: 298.15 K, 101 kPa, Liquid, Vibrating tube method
[4] = excess molar enthalpy (molar enthalpy of mixing); xn = mol fraction of the nth substance listed; conditions: 298.15 K, 101 kPa, Liquid

BrCCCCBr [1,4-dibromobutane]
Conditions | mass density [kg/m3] | refractive index
[1] | 1819.44 ± 1 | –
[2] | – | 1.5163 ± 0.0008

BrCCCBr [1,3-dibromopropane]
Conditions | mass density [kg/m3] | refractive index
[1] | 1970.25 ± 1.1 | –
[2] | – | 1.5204 ± 0.0008

BrCCBr [1,2-dibromoethane]
Conditions | mass density [kg/m3] | refractive index
[1] | 2168.3 ± 1.3 | –
[2] | – | 1.5357 ± 0.0008

BrCCCCCBr [1,5-dibromopentane] + CCOC=O
Conditions | excess molar enthalpy [kcal/mol] | mass density [kg/m3]
[3], x2 = 0.089 | – | 1651.25 ± 2.7
[3], x2 = 0.1775 | – | 1605.2 ± 2.8
[3], x2 = 0.2567 | – | 1560.84 ± 2.9
[3], x2 = 0.3412 | – | 1509.84 ± 2.9
[3], x2 = 0.4134 | – | 1463.17 ± 2.9
[3], x2 = 0.5374 | – | 1374.43 ± 3
[3], x2 = 0.7024 | – | 1237.83 ± 2.9
[3], x2 = 0.7951 | – | 1149.61 ± 2.8
[3], x2 = 0.8844 | – | 1054.85 ± 2.6
[3], x2 = 0.9227 | – | 1010.83 ± 2.6
[4], x2 = 0.0896 | 0.0659 ± 0.00184 | –
[4], x2 = 0.1866 | 0.108 ± 0.00287 | –
[4], x2 = 0.279 | 0.138 ± 0.00359 | –
[4], x2 = 0.3638 | 0.157 ± 0.00406 | –
[4], x2 = 0.4389 | 0.166 ± 0.0043 | –
[4], x2 = 0.5051 | 0.169 ± 0.0043 | –
[4], x2 = 0.5631 | 0.166 ± 0.0043 | –
[4], x2 = 0.6125 | 0.158 ± 0.00406 | –
[4], x2 = 0.6372 | 0.153 ± 0.00406 | –
[4], x2 = 0.6548 | 0.149 ± 0.00382 | –
[4], x2 = 0.6837 | 0.142 ± 0.00359 | –
[4], x2 = 0.6928 | 0.139 ± 0.00359 | –
[4], x2 = 0.7324 | 0.128 ± 0.00335 | –
[4], x2 = 0.7827 | 0.108 ± 0.00287 | –
[4], x2 = 0.831 | 0.088 ± 0.00237 | –
[4], x2 = 0.8797 | 0.065 ± 0.00182 | –
[4], x2 = 0.9254 | 0.0385 ± 0.00117 | –
[4], x2 = 0.966 | 0.0136 ± 0.000598 | –

BrCCCCCCBr [1,6-dibromohexane] + CCCC(=O)OCC
Conditions | excess molar enthalpy [kcal/mol] | mass density [kg/m3]
[3], x2 = 0.0741 | – | 1554.45 ± 2.5
[3], x2 = 0.1407 | – | 1511.27 ± 2.6
[3], x2 = 0.2026 | – | 1470.35 ± 2.6
[3], x2 = 0.2669 | – | 1427.12 ± 2.6
[3], x2 = 0.3292 | – | 1384.45 ± 2.6
[3], x2 = 0.4493 | – | 1300.05 ± 2.6
[3], x2 = 0.5934 | – | 1194.98 ± 2.6
[3], x2 = 0.6267 | – | 1170.08 ± 2.6
[3], x2 = 0.6854 | – | 1125.55 ± 2.6
[3], x2 = 0.7302 | – | 1091.1 ± 2.5
[3], x2 = 0.7843 | – | 1048.89 ± 2.5
[3], x2 = 0.8939 | – | 961.41 ± 2.4
[4], x2 = 0.0629 | 0.00655 ± 0.000478 | –
[4], x2 = 0.1341 | 0.0105 ± 0.00055 | –
[4], x2 = 0.2059 | 0.0133 ± 0.000598 | –
[4], x2 = 0.2734 | 0.014 ± 0.000621 | –
[4], x2 = 0.3411 | 0.0136 ± 0.000598 | –
[4], x2 = 0.4017 | 0.0124 ± 0.000574 | –
[4], x2 = 0.4524 | 0.0103 ± 0.00055 | –
[4], x2 = 0.4952 | 0.00796 ± 0.000502 | –
[4], x2 = 0.5312 | 0.00562 ± 0.000478 | –
[4], x2 = 0.5662 | 0.00308 ± 0.00043 | –
[4], x2 = 0.6022 | 0.000191 ± 0.000382 | –
[4], x2 = 0.6161 | -0.000359 ± 0.000382 | –
[4], x2 = 0.6589 | -0.00213 ± 0.000406 | –
[4], x2 = 0.7115 | -0.00304 ± 0.00043 | –
[4], x2 = 0.7699 | -0.00366 ± 0.00043 | –
[4], x2 = 0.8324 | -0.00347 ± 0.00043 | –
[4], x2 = 0.8956 | -0.00213 ± 0.00043 | –
[4], x2 = 0.9514 | -0.000884 ± 0.000406 | –

BrCCCBr [1,3-dibromopropane] + CCCC(=O)OCC
Conditions | excess molar enthalpy [kcal/mol] | mass density [kg/m3]
[3], x2 = 0.0436 | – | 1908.9 ± 1.2
[3], x2 = 0.0835 | – | 1854.01 ± 1.3
[3], x2 = 0.1381 | – | 1781.05 ± 1.4
[3], x2 = 0.1859 | – | 1719.07 ± 1.6
[3], x2 = 0.2926 | – | 1586.65 ± 1.8
[3], x2 = 0.4637 | – | 1389.88 ± 2
[3], x2 = 0.5238 | – | 1324.96 ± 2.1
[3], x2 = 0.6494 | – | 1195.57 ± 2.2
[3], x2 = 0.7131 | – | 1133.02 ± 2.3
[3], x2 = 0.7811 | – | 1068.34 ± 2.3
[3], x2 = 0.852 | – | 1003.1 ± 2.3
[3], x2 = 0.9215 | – | 941.15 ± 2.3
[4], x2 = 0.0406 | 0.00528 ± 0.000454 | –
[4], x2 = 0.0875 | 0.0082 ± 0.000502 | –
[4], x2 = 0.142 | 0.00906 ± 0.000502 | –
[4], x2 = 0.1949 | 0.00832 ± 0.000502 | –
[4], x2 = 0.2497 | 0.00576 ± 0.000454 | –
[4], x2 = 0.3027 | 0.00174 ± 0.000406 | –
[4], x2 = 0.3525 | -0.00265 ± 0.000406 | –
[4], x2 = 0.4005 | -0.00731 ± 0.000478 | –
[4], x2 = 0.4399 | -0.0109 ± 0.00055 | –
[4], x2 = 0.4453 | -0.0114 ± 0.00055 | –
[4], x2 = 0.4914 | -0.0149 ± 0.000621 | –
[4], x2 = 0.5444 | -0.0171 ± 0.000669 | –
[4], x2 = 0.6028 | -0.0185 ± 0.000717 | –
[4], x2 = 0.6668 | -0.019 ± 0.000717 | –
[4], x2 = 0.7369 | -0.0185 ± 0.000717 | –
[4], x2 = 0.8067 | -0.0161 ± 0.000669 | –
[4], x2 = 0.8771 | -0.0119 ± 0.000574 | –

BrCCBr [1,2-dibromoethane] + CCCC(=O)OCC
Conditions | excess molar enthalpy [kcal/mol] | mass density [kg/m3]
[3], x2 = 0.08 | – | 2015.53 ± 1.4
[3], x2 = 0.1235 | – | 1937.68 ± 1.5
[3], x2 = 0.1689 | – | 1859.7 ± 1.6
[3], x2 = 0.2131 | – | 1787.18 ± 1.7
[3], x2 = 0.311 | – | 1637.22 ± 1.9
[3], x2 = 0.3652 | – | 1559.91 ± 2
[3], x2 = 0.424 | – | 1480.28 ± 2.1
[3], x2 = 0.4807 | – | 1407.25 ± 2.1
[3], x2 = 0.5444 | – | 1329.31 ± 2.2
[3], x2 = 0.6754 | – | 1181.51 ± 2.3
[3], x2 = 0.7549 | – | 1098.99 ± 2.3
[3], x2 = 0.8227 | – | 1032.55 ± 2.3
[3], x2 = 0.9026 | – | 958.45 ± 2.3
[4], x2 = 0.0385 | 0.005 ± 0.000454 | –
[4], x2 = 0.0839 | 0.00753 ± 0.000478 | –
[4], x2 = 0.1324 | 0.00841 ± 0.000502 | –
[4], x2 = 0.1841 | 0.00779 ± 0.000502 | –
[4], x2 = 0.2355 | 0.00421 ± 0.00043 | –
[4], x2 = 0.2844 | -0.0011 ± 0.000382 | –
[4], x2 = 0.3336 | -0.00743 ± 0.000478 | –
[4], x2 = 0.3803 | -0.0131 ± 0.000598 | –
[4], x2 = 0.4245 | -0.0174 ± 0.000693 | –
[4], x2 = 0.4313 | -0.0181 ± 0.000693 | –
[4], x2 = 0.458 | -0.0205 ± 0.000741 | –
[4], x2 = 0.5024 | -0.0217 ± 0.000789 | –
[4], x2 = 0.5565 | -0.023 ± 0.000813 | –
[4], x2 = 0.6234 | -0.0229 ± 0.000813 | –
[4], x2 = 0.6941 | -0.0215 ± 0.000789 | –
[4], x2 = 0.7723 | -0.0185 ± 0.000717 | –
[4], x2 = 0.851 | -0.0141 ± 0.000621 | –
[4], x2 = 0.9264 | -0.00803 ± 0.000502 | –

BrCCCCCBr [1,5-dibromopentane]
Conditions | mass density [kg/m3] | refractive index
[1] | 1694.09 ± 2.6 | –
[2] | – | 1.5099 ± 0.0009

BrCCCCCCBr [1,6-dibromohexane]
Conditions | mass density [kg/m3] | refractive index
[1] | 1601.8 ± 2.5 | –
[2] | – | 1.506 ± 0.0009
